Source: US20070225170A1, “2-Halo-6-Alkylphenyl-Substituted Tetramic Acid Derivatives” (BAYER CROPSCIENCE AKTIENGESELLSCHAFT, priority 2003, published 2007)

Tests used:
Setaria = test: Herbicidal post-emergence action, greenhouse; format: in vivo; settings: 320 g of a.i./ha
Description: (§1) Herbicidal Post-Emergence Action
(§2) Seeds of monocotyledonous and dicotyledonous weed and crop plants are placed into sandy loam in wood fibre pots, covered with soil and cultivated in a greenhouse under good growth conditions. 2-3 weeks after sowing, the test plants are treated at the one-leaf stage. The test compounds, formulated as wettable powders (WP), are, in various dosages with a water application rate of 600 l/ha (converted), with 0.2% of wetting agent added, sprayed onto the green parts of the plants. After the test plants were kept in the greenhouse under optimum growth conditions for about 3 weeks, the effect of the preparations is rated visually in comparison to untreated controls (herbicidal effect in percent (%): 100% effect=the plants have died, 0% effect=like control plants).

Stellaria = test: Herbicidal post-emergence action, greenhouse; format: in vivo; settings: 320 g of a.i./ha
Description: as §1, §2

Lolium = test: Herbicidal post-emergence action, greenhouse; format: in vivo; settings: 320 g of a.i./ha
Description: as §1, §2

Avena sativa = test: Herbicidal post-emergence action, greenhouse; format: in vivo; settings: 320 g of a.i./ha, greenhouse (T22-T24)
Description: as §1, §2

[1] = test system: greenhouse red spider mite (Tetranychus urticae); test: Tetranychus test (OP-resistant/spray treatment); format: in vivo
Description: Tetranychus Test (OP-Resistant/Spray Treatment)
To produce a suitable preparation of active compound, 1 part by weight of active compound is mixed with the stated amounts of solvents and emulsifier, and the concentrate is diluted with emulsifier-containing water to the desired concentration.
Discs of bean leaves (Phaseolus vulgaris), which are infested by all stages of the greenhouse red spider mite (Tetranychus urticae), are sprayed with a preparation of active compound of the desired concentration.
After the desired period of time, the activity in % is determined. 100% means that all spider mites have been killed; 0% means that none of the spider mites have been killed.

Summer wheat = test: Container trials with cereals in the greenhouse, without/with safener; settings: in vivo
Sinapis = test: Herbicidal post-emergence action, greenhouse; format: in vivo; settings: 320 g of a.i./ha, greenhouse (T22)
Description: as §1, §2

[2] = test system: larvae of the mustard beetle (Phaedon cochleariae); test: Phaedon test (spray treatment); format: in vivo; settings: 100 g/ha
Description: Phaedon Test (Spray Treatment) To produce a suitable preparation of active compound, 1 part by weight of active compound is mixed with the stated amounts of solvents and emulsifier, and the concentrate is diluted with emulsifier-containing water to the desired concentration. Discs of Chinese cabbage (Brassica pekinensis) are sprayed with a preparation of active compound of the desired concentration and, after they have dried, populated with larvae of the mustard beetle (Phaedon cochleariae).

Amaranthus = test: Herbicidal post-emergence action, greenhouse; format: in vivo; settings: 320 g of a.i./ha, second series (T27, T28)
Description: as §1, §2

Meloidogyne incognita = test: Meloidogyne test; format: in vivo; settings: 20 ppm; nematicidal action by formation of galls on lettuce roots
Description: To produce a suitable preparation of active compound, 1 part by weight of active compound is mixed with the stated amounts of solvent and emulsifier, and the concentrate is diluted with water to the desired concentration.
Vessels are filled with sand, solution of active compound, Meloidogyne incognita egg/larvae suspension and lettuce seeds. The lettuce seeds germinate and the plants develop. On the roots, galls develop.
After the desired period of time, the nematicidal action is determined in % by the formation of galls. 100%, means that no galls have been found; 0% means that the number of galls on the treated plants corresponds to that of the untreated control.

Summer barley = test: Container trials with cereals in the greenhouse, without/with safener; settings: in vivo
[3] = greenhouse, second series (T25-T28)
[4] = greenhouse, second series (T26, T28)

`CCOC(=O)OC1=C(c2c(Br)cc(C)cc2CC)C(=O)N(C)C1CC` (centres unmarked) [I-c-6] was tested, and the “herbicidal effect, Setaria” value (Setaria; greenhouse (T22-T24)) was 100%, the “herbicidal effect, Setaria” value (Setaria; [3]) was 80% and the “herbicidal effect, Stellaria” value (Stellaria; [4]) was 70%. The “herbicidal effect, Lolium” value (Lolium; greenhouse (T22-T24)) was 90%, the “herbicidal effect, Lolium” value (Lolium; [3]) was 80% and the “herbicidal effect, Avena sativa” value (Avena sativa) was 80%. For the same molecule, the “Kill rate in % after 5d” value ([1]; 100 g/ha) was 70% and the “Summer wheat observed (%)” value (Summer wheat) was 15%.
For `CCc1cc(C)cc(Br)c1C1=C(OC(=O)C(C)C)C(C)(C)NC1=O` [I-b-2], the “herbicidal effect, Setaria” value (Setaria; greenhouse (T22-T24)) was 100%, the “herbicidal effect, Sinapis” value (Sinapis) was 70% and the “herbicidal effect, Lolium” value (Lolium; greenhouse (T22-T24)) was 100%. For the same molecule, the “herbicidal effect, Avena sativa” value (Avena sativa) was 90%.
In the case of `CCc1cc(C)cc(Br)c1C1=C(O)CN(C2CC2)C1=O` [I-a-7], the “herbicidal effect, Setaria” value (Setaria; greenhouse (T22-T24)) is reported as 100%, the “herbicidal effect, Setaria” value (Setaria; [3]) is reported as 80% and the “herbicidal effect, Sinapis” value (Sinapis) is reported as 70%. The “herbicidal effect, Stellaria” value (Stellaria; [4]) was 80%, the “herbicidal effect, Lolium” value (Lolium; greenhouse (T22-T24)) was 100% and the “herbicidal effect, Lolium” value (Lolium; [3]) was 100%. For the same molecule, the “herbicidal effect, Avena sativa” value (Avena sativa) was 90% and the “Kill rate in % after 7d” value [2] was 100%.
For `CCc1cc(C)cc(Br)c1C1=C(OC(=O)C(C)(C)C)C2CCCN2C1=O` (centres unmarked) [I-b-1], the “herbicidal effect, Amaranthus” value (Amaranthus) was 70%, the “herbicidal effect, Setaria” value (Setaria; greenhouse (T22-T24)) was 90% and the “herbicidal effect, Setaria” value (Setaria; [3]) was 100%. The “herbicidal effect, Lolium” value (Lolium; greenhouse (T22-T24)) was 90%, the “herbicidal effect, Lolium” value (Lolium; [3]) was 100% and the “herbicidal effect, Avena sativa” value (Avena sativa) was 90%.
`CCc1cc(C)cc(Br)c1C1=C(O)C2CCCN2C1=O` (centres unmarked) [I-a-1] was tested, and the “herbicidal effect, Amaranthus” value (Amaranthus) was 100%, the “herbicidal effect, Setaria” value (Setaria; greenhouse (T22-T24)) was 90% and the “herbicidal effect, Setaria” value (Setaria; [3]) was 90%. The “herbicidal effect, Stellaria” value (Stellaria; greenhouse (T23)) was 70%, the “herbicidal effect, Stellaria” value (Stellaria; [4]) was 70% and the “herbicidal effect, Lolium” value (Lolium; greenhouse (T22-T24)) was 100%. For the same molecule, the “herbicidal effect, Lolium” value (Lolium; [3]) was 90%, the “herbicidal effect, Avena sativa” value (Avena sativa) was 90% and the “Effect in % after 14d” value (Meloidogyne incognita) was 80%.
For `CCc1cc(C)cc(Br)c1C1=C(O)C(CC)N(C)C1=O` (centres unmarked) [I-a-6], the “herbicidal effect, Setaria” value (Setaria; greenhouse (T22-T24)) was 100%, the “herbicidal effect, Sinapis” value (Sinapis) was 70% and the “herbicidal effect, Lolium” value (Lolium; greenhouse (T22-T24)) was 100%. The “herbicidal effect, Avena sativa” value (Avena sativa) was 80%, the “Kill rate in % after 5d” value ([1]; 100 g/ha) was 80% and the “Kill rate in % after 7d” value [2] was 100%.
In the case of `CCc1cc(C)cc(Br)c1C1=C(O)C(C)N(CC)C1=O` (centres unmarked) [I-a-5], the “herbicidal effect, Setaria” value (Setaria; greenhouse (T22-T24)) is reported as 100%, the “herbicidal effect, Lolium” value (Lolium; greenhouse (T22-T24)) is reported as 90% and the “herbicidal effect, Avena sativa” value (Avena sativa) is reported as 80%. The “Kill rate in % after 5d” value ([1]; 100 g/ha) was 90%.
In the case of `CCOC(=O)OC1=C(c2c(Br)cc(C)cc2CC)C(=O)N(CC)C1C` (centres unmarked) [I-c-7], the “herbicidal effect, Setaria” value (Setaria; greenhouse (T22-T24)) is reported as 100%, the “herbicidal effect, Lolium” value (Lolium; greenhouse (T22-T24)) is reported as 90% and the “herbicidal effect, Avena sativa” value (Avena sativa) is reported as 80%. The “Summer barley observed (%)” value (Summer barley) was 10% and the “Kill rate in % after 5d” value ([1]; 500 g/ha) was 90%.
